From ChEMBL document CHEMBL1201862, “PubChem BioAssay data set” (2004)
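A five-concentration, 48-hour dose response in 96-well plates underlies each endpoint, interpolated linearly between surrounding concentrations. Here, GI50 denotes the concentration required for 50% inhibition of growth.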 Calls of active or inactive are those of the source. Rule as the data show it: active = GI50 up to about 1.1 µM and inactive = higher.

Assays:
Assay in all cases: NCI tumour cell line growth inhibition, 48 h
EKVX = test system: EKVX
HCT-15 = test system: HCT-15
KM12 = test system: KM12
UACC-257 = test system: UACC-257
OVCAR-8 = test system: OVCAR-8
NCI/ADR-RES = test system: NCI/ADR-RES
UO-31 = test system: UO-31
SF-295 = test system: SF-295
Malme-3M = test system: Malme-3M
SNB-19 = test system: SNB-19
SN12C = test system: SN12C
NCI-H460 = test system: NCI-H460
MDA-N = test system: MDA-N
SR = test system: SR
DU-145 = test system: DU-145
IGROV-1 = test system: IGROV-1
LOX IMVI = test system: LOX IMVI
SF-539 = test system: SF-539
MOLT-4 = test system: MOLT-4

| SMILES | GI50 (EKVX) | GI50 (HCT-15) [µM] | GI50 (KM12) | GI50 (UACC-257) | GI50 (OVCAR-8) | GI50 (NCI/ADR-RES) | GI50 (UO-31) | GI50 (SF-295) | GI50 (Malme-3M) | GI50 (SNB-19) | GI50 (SN12C) | GI50 (NCI-H460) | GI50 (MDA-N) | GI50 (SR) | GI50 (DU-145) | GI50 (IGROV-1) | GI50 (LOX IMVI) | GI50 (SF-539) | GI50 (MOLT-4) |
| --- | --- | --- | --- | --- | --- | --- | --- | --- | --- | --- | --- | --- | --- | --- | --- | --- | --- | --- | --- |
| CN(C)Cc1cc(C(=O)O)cc(CN(C)C)c1O | > 100 µM (inactive) | > 100 | > 100 µM (inactive) | > 100 µM (inactive) | > 100 µM (inactive) | > 100 µM (inactive) | > 100 µM (inactive) | > 100 µM (inactive) | > 100 µM (inactive) | > 100 µM (inactive) | > 100 µM (inactive) | > 100 µM (inactive) | > 100 µM (inactive) | > 100 µM (inactive) | > 100 µM (inactive) | > 100 µM (inactive) | > 100 µM (inactive) | – | – |
| Cc1cn([C@H]2[C@@H](CO)C[C@H]2O)c(=O)[nH]c1=O | > 100 µM (inactive) | > 100 | > 100 µM (inactive) | 50.4 µM (inactive) | > 100 µM (inactive) | > 100 µM (inactive) | > 100 µM (inactive) | > 100 µM (inactive) | > 100 µM (inactive) | – | > 100 µM (inactive) | > 100 µM (inactive) | > 100 µM (inactive) | > 100 µM (inactive) | > 100 µM (inactive) | > 100 µM (inactive) | > 100 µM (inactive) | > 100 µM (inactive) | > 100 µM (inactive) |
| O=C1/C(=C\c2ccc(Br)cc2)CCCc2ccccc21 | 17.5 µM (inactive) | 12.4 | 15.6 µM (inactive) | 19.5 µM (inactive) | 15 µM (inactive) | 13.4 µM (inactive) | 14.6 µM (inactive) | 22 µM (inactive) | – | 16.6 µM (inactive) | 16.5 µM (inactive) | 17 µM (inactive) | 17.4 µM (inactive) | 23 µM (inactive) | 15.5 µM (inactive) | 16.4 µM (inactive) | 16.3 µM (inactive) | 15.5 µM (inactive) | 18.1 µM (inactive) |
| CC(=O)OCC1OC(n2c(-c3ccccc3)c(/N=N/c3ccc(C)cc3)c(C)c(C#N)c2=S)C(OC(C)=O)C(OC(C)=O)C1OC(C)=O (centres undefined) | – | 21.1 | 8.28 µM (inactive) | 32.1 µM (inactive) | – | 7.35 µM (inactive) | > 10 µM (inactive) | 23.6 µM (inactive) | > 10 µM (inactive) | 15.3 µM (inactive) | 6.35 µM (inactive) | 10.8 µM (inactive) | 7.36 µM (inactive) | 8.99 µM (inactive) | 18.1 µM (inactive) | – | 6 µM (inactive) | – | 3.67 µM (inactive) |
| C=C(C)c1cc(C(C)(C)C)cc(C(=C)C)c1S(C)(=O)=O | > 100 µM (inactive) | > 100 | > 100 µM (inactive) | – | > 100 µM (inactive) | > 100 µM (inactive) | > 100 µM (inactive) | > 100 µM (inactive) | > 100 µM (inactive) | > 100 µM (inactive) | > 100 µM (inactive) | > 100 µM (inactive) | > 100 µM (inactive) | > 100 µM (inactive) | > 100 µM (inactive) | > 100 µM (inactive) | > 100 µM (inactive) | > 100 µM (inactive) | > 100 µM (inactive) |
| CCCCCCC(=O)O[C@H]1CC[C@H]2[C@@H]3CCC4C/C(=N/NC(=O)c5cccc6c(=O)c7ccccc7[nH]c56)C=C(C)[C@]4(C)[C@H]3CC[C@]12C (some centres undefined) | > 25 µM (inactive) | > 25 | 9.27 µM (inactive) | > 25 µM (inactive) | > 25 µM (inactive) | > 25 µM (inactive) | 19.6 µM (inactive) | > 25 µM (inactive) | > 25 µM (inactive) | > 25 µM (inactive) | > 25 µM (inactive) | – | > 25 µM (inactive) | > 25 µM (inactive) | > 25 µM (inactive) | > 25 µM (inactive) | > 25 µM (inactive) | > 25 µM (inactive) | > 25 µM (inactive) |
